In US4162311A, “Medicinal preparation with pronounced vegetotropic and antiepileptic effect for treating psychoneurotic disorders” (priority 1977, dated 1979):
Entries after “also recorded” stand apart in the source; their conditions may differ. Read-outs that look alike come from different tables or passages of the source.

Experiments:
[1] = cited from earlier work; for vegetotropic and antiepileptic effect: among tranquilizers; for relaxing effect and sluggishness: taken over prolonged periods of time; for effect of other treatments: aforesaid diseases
[2] = test system: convulsant effects of corasole and caffeine; conditions: mice; comparison drug; cited from earlier work
[3] = chemical stability / shelf life; assay type: physicochemical
Excerpt: Hydrazide of diphenylphosphenylacetic acid is a bitter-tasting odorless white powder.

solubility = assay type: physicochemical
Excerpt: Hydrazide of diphenylphosphinylacetic acid is a bitter-tasting odorless white crystalline powder. It is soluble in water (1:100), alcohol and chloroform, but insoluble in benzene and ether.

[4] = sedative effect / depression in animals; assay type: in vivo, mice and rats
[5] = test system: orientating reaction in mice; experiment: orientating reaction in mice; assay type: in vivo; conditions: intra-abdominal, 1/8 DMT, one hour before
[6] = test system: hexenal, barbamil, urethane and chloral hydrate effect; experiment: interaction with narcotics and soporifics (hexenal, barbamil, urethane, chloral hydrate); assay type: in vivo
Excerpt: (§1) A dose as low as 1/5 DMT potentiates barbamil.

monoaminooxidaze = monoaminooxidaze suppression, inferred from hexenal sleep; assay type: in vivo; conditions: concluded from equal hexenal sleep at 2 and 22 hours
Excerpt: as §1

body temperature of mice = assay type: in vivo; conditions: for decrease of body temperature (hypothermal effect): 200 mg/kg (DMT)
[7] = test system: hypothermal effect of aminazine (chlorpromazine); experiment: hypothermal effect of aminazine (chlorpromazine); conditions: in vivo
[8] = test system: separated intestines; blood pressure and respiration of rabbits; experiment: peripheral adrenolytic effect: separated intestines, blood pressure and respiration of rabbits
[9] = test system: action of serotonin on a separated rat's intestine; experiment: separated intestine with serotonin
[10] = test system: serotonin content in brain tissue; experiment: serotonin content in brain tissue of mice; assay type: in vivo
effects of nibuphin = experiment: synergism with nibuphin; conditions: in vivo
[11] = test system: convulsant effects of corasole and caffeine; experiment: sensitivity of mice to the convulsant effects of corasole and caffeine; assay type: in vivo
cumulative effect = conditions: in vivo
[12] = test system: apomorphine toxicity and stereotypy; experiment: apomorphine toxicity and stereotypy; assay type: in vivo, mice
[13] = test system: nicotine-induced convulsions; experiment: nicotine-induced convulsions in mice; assay type: in vivo
arecoline tremor = experiment: M-cholinolytic effect: arecoline tremor in mice; assay type: in vivo
[14] = test system: convulsions caused by corasole, strychnine, and electroconvulsion therapy; experiment: convulsions caused by corasole, strychnine and electroconvulsion therapy; assay type: in vivo, animals
Excerpt: (§2) As regards the effects of the proposed preparation on convulsions induced in animals in the course of an experiment, the mechanism of action appears to be more complicated.

[15] = test system: epileptic seizures caused by microinjections of penicillin; experiment: epileptic seizures caused by microinjections of penicillin into the hippocamp; assay type: in vivo; conditions: rabbits, 20 to 100 mg/kg
Excerpt: as §2

[16] = test system: sympathoadrenal and hypothalamohypophysioadrenal systems; experiment: clinical studies of vegetovascular dystonia; assay type: in vivo, patients; conditions: 32 cases
local irritant effect = conditions: in vivo
[17] = acute toxicity / tolerance dose; conditions: in vivo
[18] = behavior of rabbits after intramuscular administration; assay type: in vivo; conditions: 50 mg/kg
[19] = prolonged treatment, anatomical and histological examination, mice; assay type: in vivo; conditions: intraperitoneal, 35 mg/kg (1/9 LD50)
[20] = prolonged treatment, anatomical and histological examination, rabbits; assay type: in vivo; conditions: intramuscular, 50 mg/kg
[21] = clinical: hypothalamic syndrome with sympathoadrenal crises; assay type: in vivo, patients; conditions: of 20 cases
Excerpt: In 12 cases the number and intensity of fits were reduced and general improvement was observed. Earlier, all the patients had been repeatedly admitted to neurological hospitals where they were subjected to different forms of treatment, including drug therapy with the use of tranquilizers of the benzodiazepin derivatives. The effect of such treatment was quite moderate and unstable and was only manifest in a reduced number of fits and a slight improvement of the general state of the patients.

[22] = clinical: neurasthenia with vegetovascular dystonia; assay type: in vivo, patients
[23] = clinical: acute alcoholic abstinence; assay type: in vivo, patients; conditions: of 30 alcoholics; first two days; placebo 10 of 30
Excerpt: On the whole, the proposed preparation reduced the period of abstinence 2- to 3-fold.

[24] = clinical: temporal lobe epilepsy; assay type: in vivo, patients
Excerpt: Good results were also obtained in treating 18 cases of temporal lobe epilepsy with predominant psychosensory, psychomotor, vegetative and emotional fits. For a number of years, all the patients had been given anticonvulsants and tranquilizers which were derivatives of benzodiazepin. In most of these cases conventional treatment had been ineffective. The proposed preparation brought about a dramatic change: in 14 cases the attacks either ceased completely or their frequency was reduced by more than half.

[25] = clinical safety on prolonged use; assay type: in vivo, patients
Excerpt: The proposed preparation can be used for treating both young and old patients, as well as those having concomitant diseases of internal organs.

cholinesterase = experiment: anticholinesterase properties
phenamine stereotypy = phenamine stereotypy in rats
lethal dose of cocaine = lethal dose of cocaine in mice
[26] = clinical investigation in neurotic and psychic disorders

CNC1=Nc2ccc(Cl)cc2C(c2ccccc2)=[N+]([O-])C1 [chlorodiazepoxide]
vegetotropic and antiepileptic effect [1]: most pronounced vegetotropic and antiepileptic effect | relaxing effect and sluggishness [1]: manifest a relaxing effect and produce sluggishness

COC(=O)[C@H]1[C@H]2C[C@@H]3c4[nH]c5cc(OC)ccc5c4CCN3C[C@H]2C[C@@H](OC(=O)c2cc(OC)c(OC)c(OC)c2)[C@@H]1OC [reserpine]
sensitivity to convulsant effects of corasole and caffeine [2]: increases the sensitivity of mice

CCN(CC)CCOC(=O)c1ccc(N)cc1 [novocain]
effect of other treatments [1]: only a limited and short-lived effect

CN1C(=O)CN=C(c2ccccc2)c2cc(Cl)ccc21 [diazepam]
vegetotropic and antiepileptic effect [1]: most pronounced vegetotropic and antiepileptic effect | relaxing effect and sluggishness [1]: manifest a relaxing effect and produce sluggishness

[Mg+2].[O-2] [magnesia]
effect of other treatments [1]: only a limited and short-lived effect

NNC(=O)CP(=O)(c1ccccc1)c1ccccc1 [Hydrazide of diphenylphosphinylacetic acid]
shelf life [3]: longer than two years | chemical stability ([3]; powder and solution): chemically stable both in the form of powder and solution | solubility in alcohol (solubility; alcohol): soluble | solubility in benzene (solubility; benzene): insoluble | solubility in chloroform (solubility; chloroform): soluble | solubility in ether (solubility; ether): insoluble | sedative effect ([4]; animals): pronounced sedative effect | lowest dose causing depression ([4]; mice and rats): 1/3 | depression (without "on-side" position) ([4]; mice and rats, tolerance doses, beginning with 1/3 DMT): causes depression in mice and rats | effect on orientating reaction [5]: affects the orientating reaction in mice | lowest dose potentiating barbamil ([6]; barbamil): 1/5 | duration of hexenal sleep ([6]; hexenal given 2 and 22 hours after the preparation): induces sleep of equal duration | potentiation of narcotics and soporifics ([6]; in vivo): potentiates hexenal, barbamil, urethane and chloral hydrate; also recorded: exhibits the properties of a true Brodie potentiator | suppression of monoaminooxidaze activity (monoaminooxidaze): does not suppress the monoaminooxidaze activity | effect on body temperature (body temperature of mice; 30 mg/kg (1/7 DMT)): no effect | effect on body temperature (body temperature of mice; 60 mg/kg (printed 166 DMT)): no effect | decrease of body temperature (hypothermal effect) (body temperature of mice; 1.5 hours): 4.3 °C | decrease of body temperature (hypothermal effect) (body temperature of mice; 3 hours): 3.4 °C | effect on hypothermal effect of aminazine (chlorpromazine) [7]: intensifies the hypothermal effect | peripheral adrenolytic effect [8]: no peripheral adrenolytic effect | antagonism of serotonin on separated intestine [9]: prevents the action of serotonin | serotonin content in brain tissue [10]: decreases the serotonin content | synergism with nibuphin (effects of nibuphin): synergism | sensitivity to convulsant effects of corasole and caffeine [11]: increases the sensitivity of mice | cumulative effect (cumulative effect): no cumulative effect | effect on toxicity of apomorphine ([12]; mice): does not intensify the toxicity of apomorphine in mice | effect on duration of apomorphine stereotypy ([12]; mouse, in vivo): nor does it affect the duration of apomorphine stereotypy | nicotine-induced convulsions [13]: relieve nicotine-induced convulsions in mice | increase of survival rate ([13]; nicotine-induced convulsions): 50% | effect on arecoline tremor (arecoline tremor; mice): does not mitigate arecoline tremor in mice | effect on duration of arecoline tremor (arecoline tremor; mice): nor does it affect its duration | M-cholinolytic effect (arecoline tremor; mouse, in vivo): no M-cholinolytic effect | prevention of convulsions [14]: does not prevent convulsions | epileptic seizures [15]: prevents or reduces the frequency of epileptic seizures | excretion of adrenalin and 17-oxycorticosteroids with urine [16]: pronounced normalization | extraction of norepinephrine [16]: tendenecy towards a normalized extraction | functions of sympathoadrenal and hypothalamohypophysioadrenal systems ([16]; course of treatment): normalized the functions | local irritant effect (local irritant effect): no local irritant effect | toxicity [17]: limited toxicity | LD50 ([17]; iv, injected intravenously, species not given): 293 mg/kg | MTD ([17]; mouse, mice, read-out: DMT (tolerance dose)): 200 mg/kg | effect on animals' behavior [18]: in no way affected the animals's behavior | changes in blood and internal organs [19]: no changes in the blood and internal organs | changes in blood and internal organs [20]: no changes in the blood and internal organs | cases with marked improvement (crises ceased, working capacity restored) [21]: 5 cases | cases with number and intensity of fits reduced and general improvement [21]: 12 cases | vegetovascular crises ([22]; 8 of 11 patients): reduced number or even complete eliminationn of vegetovascular crises | patients with significant improvement ([22]; of 11 patients, end of the first week): 8 patients | patients with considerable improvement [23]: 20 | dysphorias and patients' behavior ([24]; 18 cases): dysphorias were better endured, and the patients' behavior became more controlled | electroencephalography ([24]; 18 cases): reduction in the paroxysmal activity and normalization of recordings | cases in which attacks ceased completely or frequency reduced by more than half ([24]; of 18 cases): 14 cases | electrocardiography ([25]; 8 to 12 weeks): nor are there any changes that could be detected by electrocardiography | morphological and biochemical composition of the blood ([25]; 8 to 12 weeks): does not change the morphological and biochemical composition of the blood | habit formation ([25]; clinical): not habit-forming | toxicity ([25]; clinical): low toxicity | contraindication ([25]; human, in vivo): gastric ulcer with a tendency to frequency exacerbations | impediment to drivers ([25]; human, in vivo): no impediment to drivers | side effects or complications ([25]; prolonged administration): no side effects or complications | anticholinesterase properties (cholinesterase): do not possess anticholinesterase properties | effect on analgetic effect of analginum (analgetic effect in mice; 1/2 DMT): intensified the analgetic effect of analginum | effect on analgetic effect of morphine (analgetic effect in mice; 1/4 DMT): intensified the analgetic effect of morphine | lowest dose with analgetic effect (analgetic effect in mice; mice): 1/4 | duration of analgetic effect (analgetic effect in mice; mice, 1/2 DMT): three hours | duration of analgesia (analgetic effect in mice; mice, DMT): more than five hours | advent of phenamine stereotypy (phenamine stereotypy; great doses): prevents the advent | duration of phenamine stereotypy (phenamine stereotypy; rats, 10 mg/kg to 400 mg/kg): statistically reliable reduction | prevention of death of mice (lethal dose of cocaine): 60% | tranquilizer strength ([26]; human, in vivo): relatively weak tranquilizer | night sleep effect ([26]; neuroses): light night sleep compeller | onset of sleep ([26]; neuroses): accelerates the onset of sleep | efficacy versus known drugs ([26]; neurotic and psychic disorders with vegetovascular disturbances and epileptic fits without convulsions): superior in this respect to the known drugs | side effects or complications ([26]; patients): no side effects or complications | tolerance ([26]; patients): good tolerance | relaxation effect ([26]; patients, versus benzodiazepin derivatives): absence to a marked relaxation effect
